This note sets out measurements from patent US12637428B2, “Isoquinoline derivatives as SIK2 inhibitors” (Cancer Research Technology Limited, priority 2019, dated 2026).

T1 sequence (Q9H0K1 whole entry): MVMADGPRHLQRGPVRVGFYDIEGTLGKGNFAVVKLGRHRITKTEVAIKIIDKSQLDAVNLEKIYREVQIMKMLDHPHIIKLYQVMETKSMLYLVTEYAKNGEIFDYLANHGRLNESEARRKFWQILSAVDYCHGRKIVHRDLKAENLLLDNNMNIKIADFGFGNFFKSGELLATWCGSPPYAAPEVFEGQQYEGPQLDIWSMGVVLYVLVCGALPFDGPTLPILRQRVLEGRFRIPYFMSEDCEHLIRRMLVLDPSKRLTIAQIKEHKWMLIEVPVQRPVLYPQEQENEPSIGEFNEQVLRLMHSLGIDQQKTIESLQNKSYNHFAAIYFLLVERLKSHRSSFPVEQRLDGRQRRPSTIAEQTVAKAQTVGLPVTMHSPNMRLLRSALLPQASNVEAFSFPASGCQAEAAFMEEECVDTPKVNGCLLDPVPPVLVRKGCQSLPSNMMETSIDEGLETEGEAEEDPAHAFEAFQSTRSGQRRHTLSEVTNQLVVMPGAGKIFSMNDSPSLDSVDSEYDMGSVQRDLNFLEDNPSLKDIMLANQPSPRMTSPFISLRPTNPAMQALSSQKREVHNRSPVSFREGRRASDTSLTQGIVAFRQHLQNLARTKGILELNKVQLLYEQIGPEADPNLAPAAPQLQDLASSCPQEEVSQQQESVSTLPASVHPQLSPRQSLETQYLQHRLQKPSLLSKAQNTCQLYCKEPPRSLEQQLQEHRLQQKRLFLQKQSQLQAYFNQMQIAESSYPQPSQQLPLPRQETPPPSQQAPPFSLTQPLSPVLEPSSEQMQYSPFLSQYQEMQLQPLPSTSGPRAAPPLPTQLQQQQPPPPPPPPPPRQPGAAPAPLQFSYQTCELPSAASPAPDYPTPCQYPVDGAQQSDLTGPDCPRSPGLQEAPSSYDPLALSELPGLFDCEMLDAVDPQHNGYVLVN

The experiment addresses T1, SIK2 (Homo sapiens, UniProt Q9H0K1).
T1 construct: purchased Life Technologies
Nature of the experiment: SIK2 kinase assay, IMAP fluorescence polarization. Particulars: 50 or 100 μM ATP, average. In kind it is biochemical. As for the experimental part:
SIK2, SIK1, SIK3, Abl, Src and EPHA2 Kinase Assays
SIK2, SIK1, SIK3, Abl, Src and EPHA2 assays were performed using an IMAP fluorescence polarization assay format (Molecular Devices Inc.). 0.6-13 nM of each kinase (Life Technologies) was incubated for 60 min at room temperature with 100 nM of either FAM-Abltide, FAM-Srctide or FAM-HDAC protein derived peptide (synthesized by Alta Biosciences, Birmingham UK). Assays were carried out in the presence of 50 or 100 μM ATP in either 20 mM Tris buffer (pH 7.2) containing 4 mM MgCl2, 0.2% BSA and 2 mM DTT (SIK2, SIK1, SIK3, Abl, Src); or 20 mM Tris buffer (pH 8.5) containing 20 mM MgCl2, 0.5% BSA, 0.2% Triton and 5 mM DTT (EPHA2). Typically, dose response analyses were performed over concentration ranges from 0.00005-1 μM. Reactions were stopped by adding 2 assay volumes of 0.25% (v/v) IMAP binding reagent in either an 85:15 ratio (SIK2, SIK1, SIK3, Abl, EPHA2) or 30:70 ratio (Src) of IMAP binding buffers A and B (Molecular Devices). After incubation to allow the detection reagents to bind to the phosphorylated peptide, fluorescence polarization was measured on a Tecan Infinite plate reader at excitation (470 nm) and emission (530 nm) wavelengths. Inhibition was calculated using no inhibitor and no enzyme controls as 0 and 100% inhibition, respectively.
Table 3 provides details of the inhibitory constant (nM) of compounds of the invention at SIK1, SIK2 and SIK3 and other kinases.
In the case of `Cc1cccc(F)c1-c1ccc2c(C(=O)NCC3CNC3)c(N)ncc2c1` [Example 33, 3-amino-N-(azetidin-3-ylmethyl)-7-(2-fluoro-6-methyl-phenyl)isoquinoline-4-carboxamide], the Ki is 11.8 nM. Next, `Nc1cc2c(NC3CCNCC3)cc(-c3c(F)cccc3Cl)cc2cn1` [Example 20, 7-(2-chloro-6-fluoro-phenyl)-N5-(4-piperidyl)isoquinoline-3,5-diamine]: 26.1 nM; `Cc1cccc(Cl)c1-c1ccc2c(C(=O)NCC3CCN(C)CC3)c(N)ncc2c1` [Example 96, 3-amino-7-(2-chloro-6-methyl-phenyl)-N-[(1-methyl-4-piperidyl)methyl] isoquinoline-4-carboxamide]: 54.5 nM; `Cc1cccc(F)c1-c1cc(NC2CCCCC2)c2cc(N)ncc2c1` [Example 111, N5-cyclohexyl-7-(2-fluoro-6-methyl-phenyl)isoquinoline-3,5-diamine]: 83.5 nM. `Cc1cccc(F)c1-c1ccc2c(C(=O)NCC3CN(C)C3)c(N)ncc2c1` [Example 90, 3-amino-7-(2-fluoro-6-methyl-phenyl)-N-[(1-methylazetidin-3-yl)methyl]isoquinoline-4-carboxamide] registered an inhibitory constant (Ki) of 32.3 nM.

For `Cc1cccc(F)c1-c1ccc2c(C(=O)N[C@H]3CCN(C)C3)c(N)ncc2c1` [Example 93, 3-amino-7-(2-fluoro-6-methyl-phenyl)-N-[(3S)-1-methylpyrrolidin-3-yl]isoquinoline-4-carboxamide], the affinity, expressed as Ki, was 26.8 nM. Next, `Cc1cccc(Cl)c1-c1ccc2c(C(=O)NCC3CCNCC3)c(N)ncc2c1` [Example 40, 3-amino-7-(2-chloro-6-methyl-phenyl)-N-(4-piperidylmethyl)isoquinoline-4-carboxamide]: 39.5 nM. Next, `Cc1cccc(F)c1-c1ccc2c(C(=O)N[C@@H]3CCN(C)C3)c(N)ncc2c1` [Example 92, 3-amino-7-(2-fluoro-6-methyl-phenyl)-N-[(3R)-1-methylpyrrolidin-3-yl]isoquinoline-4-carboxamide]: 16.8 nM. In the case of `Cc1cccc(Cl)c1-c1ccc2c(C(=O)N[C@@H]3CCN(C)C3)c(N)ncc2c1` [Example 97, 3-amino-7-(2-chloro-6-methyl-phenyl)-N-[(3R)-1-methylpyrrolidin-3-yl]isoquinoline-4-carboxamide] it was 13 nM; in that of `Cc1cccc(F)c1-c1ccc2c(C(=O)NCC3CCNCC3)c(N)ncc2c1` [Example 34, 3-amino-7-(2-fluoro-6-methyl-phenyl)-N-(4-piperidylmethyl)isoquinoline-4-carboxamide], 41.5 nM; in that of `Cc1cccc(F)c1-c1ccc2c(C(=O)NCC3CCN(C)CC3)c(N)ncc2c1` [Example 91, 3-amino-7-(2-fluoro-6-methyl-phenyl)-N-[(1-methyl-4-piperidyl)methyl] isoquinoline-4-carboxamide], 47.6 nM.

The molecule `Cc1cccc(F)c1-c1ccc2c(C(=O)N[C@H]3CCNC3)c(N)ncc2c1` [Example 37, 3-amino-7-(2-fluoro-6-methyl-phenyl)-N-[(3S)-pyrrolidin-3-yl]isoquinoline-4-carboxamide] displayed an inhibition constant Ki of 7.74 nM.

In the case of `Cc1cccc(Cl)c1-c1ccc2c(C(=O)NCC3CN(C)C3)c(N)ncc2c1` [Example 95, 3-amino-7-(2-chloro-6-methyl-phenyl)-N-[(1-methylazetidin-3-yl)methyl]isoquinoline-4-carboxamide], the Ki worked out at 31.6 nM. Next, `Cc1cccc(Cl)c1-c1ccc2c(C(=O)NC3CN(C)C3)c(N)ncc2c1` [Example 94, 3-amino-7-(2-chloro-6-methyl-phenyl)-N-(1-methylazetidin-3-yl)isoquinoline-4-carboxamide]: 14.4 nM; `Cc1cccc(Cl)c1-c1ccc2c(C(=O)NCC3CNC3)c(N)ncc2c1` [Example 39, 3-amino-N-(azetidin-3-ylmethyl)-7-(2-chloro-6-methyl-phenyl)isoquinoline-4-carboxamide]: 19.6 nM.
